Source: ChEMBL document CHEMBL3507680, “University of Dundee, Gates Library screen for HepG2 cell viability”

Experiment: Human HepG2 cell viability assay in 384 well format
Format: toxicity, cell-based
Set-up: dose 125 nL, time 70.5 hour; concentration not given beside the values
Settings: HepG2 cells, read-out: Inhibition

| Structure (SMILES) | cytotoxicity at 70.5 h [%] |
| --- | --- |
| O=C(NCc1ccccn1)[C@@H]1COC[C@H]2CN(C3CCC3)C[C@H]21 | -13.4 |
| O=C(CCc1ccccc1)N1CCn2cc(Cn3cncn3)nc2C1 | -11.8 |
| CC(C)c1noc(OCC(=O)N(C)C(C)C)n1 | -12.3 |
| CCn1ccc(CNC(=O)c2cc(OC)cc(OC)c2)n1 | -10.5 |
| COc1ccccc1CNC(=O)CNCCn1cc(C)cn1 | -13.5 |
| O=C(COCC(F)(F)F)NC1CCCc2cc(OC(F)F)ccc21 (stereo unspecified) | -6.74 |
| N#Cc1ccc(CN(CC(N)=O)Cc2cccc(F)c2)cc1 | -2.99 |
| CC(C)c1nnc2n1CCN(C(=O)c1cc(Cl)c[nH]1)C2 | 0.408 |
| O=C(Cc1ccsc1)N1CCC(n2nc(-c3ccco3)ccc2=O)CC1 | 1.25 |
| COC(=O)c1ccc(NC(=O)CCc2ccco2)cc1 | -8.07 |
| O=C1CN(C(=O)C2CN(c3cccc(Cl)c3)CCO2)CCN1 (stereo unspecified) | -7.93 |
| CC(NC(=O)Nc1nccs1)C(=O)NC1CCCC1 (stereo unspecified) | 0.896 |
| Cc1ccc(-c2noc(C(C)(C)NS(C)(=O)=O)n2)cc1F | -2.69 |
| CCN(C(=O)CCc1ccc2c(c1)OCO2)C1CC(=O)NC1=O (stereo unspecified) | 6.1 |
| CN(C)CCN1CCC2(CCCN(Cc3cccn3C)C2)C1=O (stereo unspecified) | -11.1 |
| CCN(CC)C(=O)CCCNC(=O)Cc1nc(-c2ccco2)oc1C | -12.3 |
| O[C@@H]1C[C@@H](c2nc(-c3ccccc3)no2)N(Cc2ccncc2)C1 | -1.52 |
| CSc1ncccc1C(=O)Nc1ccc(Cn2ccccc2=O)cc1 | 18.3 |
| O=C1CC[C@H]2CN(Cc3cccc(F)c3)CC[C@H]2N1CCc1c[nH]cn1 | -2.79 |
| Cc1n[nH]c(C2CN(Cc3nnc(C4CC4)n3C)CCO2)n1 (stereo unspecified) | -6.69 |
| N#CC(NC(=O)CS(=O)(=O)C1CCCC1)c1ccc(F)cc1F (stereo unspecified) | -10.4 |
| CC(C)NC(=O)c1csc(NC2CC2)n1 | 0.174 |
| CCN(CCC(F)(F)F)S(=O)(=O)c1cccc(F)c1C#N | -4.04 |

| Structure (SMILES) | cytotoxicity at 70.5 h [%] |
| --- | --- |
| CC(NC(=O)NCc1cccnc1N1CCCCC1)c1nccs1 (stereo unspecified) | -4.81 |
| CCC(=O)N1CCN(S(=O)(=O)c2cccc(F)c2)[C@H]2CS(=O)(=O)C[C@H]21 | -13.7 |
| Cc1cnn(CC2CCCN2C(=O)Cc2c(C)noc2C)c1 (stereo unspecified) | -14 |
| Cn1ccc2c(cnc3nc(-c4ccncc4)nn32)c1=O | -7.69 |
| O=C(CCc1ccc(Cl)s1)N1CCCC(N2CCNC2=O)C1 (stereo unspecified) | -17.9 |
| CCS(=O)(=O)Nc1ccc2c(c1)C1(CCOCC1)CN2C | -1.55 |
| CC1COCCN1Cc1nc(-c2cccc(C(F)(F)F)c2)no1 (stereo unspecified) | -2.89 |
| c1ccc(N2CCN(Cc3cnc(C4CCCCO4)nc3)CC2)nc1 (stereo unspecified) | -4.5 |
| O=C(c1ccoc1)N1CCO[C@]2(CCC[C@@H]2COCc2ccncc2)C1 | 1.38 |
| COc1ccc2c(c1)CCN(CCC(=O)NC1CCCCC1)CC2 | -9.14 |
| O=C(NCCNc1ncccn1)Nc1cc(C(F)(F)F)c[nH]c1=O | -3.37 |
| O=C(c1ccco1)N1CC[C@@H]2O[C@H](COCCN3CCCC3)CC[C@@H]21 | 10.5 |
| COc1ccc(C)cc1C(C)NCc1cnnn1C (stereo unspecified) | -1.22 |
| Cc1cc(C)n(Cc2cccc(C(=O)NCCSCC(C)(C)O)c2)n1 | -3.16 |
| Cc1cc(CN2CCN(C(=O)NCc3c(C)noc3C)CC2)on1 | -13.9 |
| CN(Cc1cc(C(C)(C)C)n[nH]1)C(=O)c1ccccc1C1CCNC1 (stereo unspecified) | -13.4 |
| CN(CC(=O)NC1CC1)S(=O)(=O)c1ccc(F)cc1Cl | -3.95 |
| COc1ncccc1CN1CC[C@H]2[C@H]1CCN2CCN(C)C | -1.63 |
| CC(C)Nc1nc2c(c(NC3CC3)n1)CN(C(=O)c1ccsc1)CC2 | -17.2 |
| CC1CCN(C(=O)CSCCN2CCOCC2)CC1 | 4.07 |
| O[C@H]1CN(Cc2c[nH]nc2-c2ccccc2)CC[C@@]12CCCO2 | 15.7 |
| Cc1nc(CNC(=O)c2oc3ccccc3c2CN(C)C)oc1C | -8.24 |
| Cc1cc(CN2C[C@@H]3COC[C@]3(CNC(=O)c3ccco3)C2)no1 | -7.96 |

| Structure (SMILES) | cytotoxicity at 70.5 h [%] |
| --- | --- |
| CC(C)N(Cc1cnn(C)c1)C(=O)c1ccnc(N(C)C)c1 | -7.21 |
| CNS(=O)(=O)CCNC(=O)[C@@]12CNC[C@@H]1CN(C1CCCC1)C2 | -0.951 |
| Cc1nccn1C1CCCN(C(=O)COCC2CC2)C1 (stereo unspecified) | -6.29 |
| CN(Cc1ccc([S+](C)[O-])cc1)c1ccc(Br)cn1 (stereo unspecified) | -0.515 |
| CS(=O)(=O)NCc1ccc(NC(=O)CC2=CCCCC2)cc1 | -0.966 |
| COCC(=O)N1CCC2(CC1)CCN(Cc1ccccn1)C2=O | -0.554 |
| CC(C)N(C(=O)Cn1cc(Cl)cn1)c1ccccc1 | -4.68 |
| COCCCNc1c(-c2ccc(C)cc2)c(=O)c1=O | -6.65 |
| COc1cc(CNCCn2cc(C)cn2)c2c(c1)CC(C)O2 (stereo unspecified) | -8.44 |
| COCCO[C@H]1COCCN(Cc2ccc(OC)cc2)C1 | 8.32 |
| CS(=O)(=O)N1C[C@@H]2COC[C@H](C(=O)Nc3cnccn3)[C@@H]2C1 | 59.3 |
| CCCN1CCN(C(=O)Cn2nc(C(F)(F)F)c(Br)c2C2CC2)CC1 | -6.28 |
| Cc1cnc(CN(Cc2ccccc2)CC(O)c2cccs2)cn1 (stereo unspecified) | 7.82 |
| Cc1nc(CN2CCN(CCCc3nc4ccccc4o3)CC2)no1 | -0.419 |
| O=C(COc1cccc(F)c1)N1C[C@@H](CN2CCCC2)C[C@H](CO)C1 | 0.446 |
| Cc1nc2c(c(NCC3Cc4ccccc4CN3C)n1)CCNCC2 (stereo unspecified) | -8.03 |
| Cc1ccc2c(c1)OCCN2C(=O)c1ccc(=O)n(C)c1 | -5.4 |
| Nc1nc(C2CCN(C(=O)c3cncs3)CC2)cs1 | -2.63 |
| CCOc1ccc(NC(=O)c2cnc(N3CCCC3)nc2C)cc1 | -15.6 |
| Cc1ccc(NC(=O)Nc2cnc(N3CCN(C)CC3)nc2)cc1 | 27.1 |
| O=C(CNC(=O)C1(c2ccc(F)cc2F)CCC1)Nc1ccccn1 | -3.32 |
| CCc1cnc(CNC(=O)N2CCCC(C(=O)NC)C2)s1 (stereo unspecified) | 12.5 |
| COc1cccc2c1ccn2CC(=O)N1CCCC(C(=O)O)C1 (stereo unspecified) | 21.4 |

| Structure (SMILES) | cytotoxicity at 70.5 h [%] |
| --- | --- |
| CCOC1CCN(C(=O)NCc2ccc(C(=O)N(C)C(C)C)cc2)CC1 | -18.5 |
| Cc1ccc(F)c(S(=O)(=O)N2CCCC2c2ccncc2)c1 (stereo unspecified) | -1.25 |
| O=C(C(CNCc1ccco1)c1ccccc1)N1CCOCC1 (stereo unspecified) | -4.97 |
| Cc1c(F)cccc1S(=O)(=O)NCC(C)(C)CC(C)O (stereo unspecified) | -5.55 |
| Cn1cc(-c2nc(CN3CCOC(Cn4cncn4)C3)cs2)cn1 (stereo unspecified) | 1.83 |
| CCC(=O)c1ccc(OCC(=O)NC(C)Cc2cc(C)n[nH]2)cc1 (stereo unspecified) | -8.59 |
| CN(C)S(=O)(=O)N1C[C@H]2C[C@H](C(=O)Nc3cccnc3)[C@@H](C1)O2 | -8.64 |
| CCN(CC)C(=O)[C@@H]1C[C@H](N)CN1C(=O)c1cc2c([nH]c1=O)CCC2 | 14.4 |
| O=C([C@H]1C[C@H]2OCC[C@H]2N(Cc2cccnc2)C1)N1CCCO1 | 0.465 |
| OCCCc1nncn1-c1cccc(C(F)(F)F)c1 | -1.23 |
| COc1cccc(CCCn2cnnc2[S+](C)[O-])c1 (stereo unspecified) | -7.37 |
| Cc1ocnc1C(=O)N(C)[C@@H]1CC[C@@H](Oc2ccccc2)[C@@H]1O | -5.13 |
| CS(=O)(=O)CCCSCc1cc(F)cc(Br)c1 | -4.67 |
| CC1CN(C)CCN1Cc1cccc(C(=O)N(C)C)c1 (stereo unspecified) | 33.2 |
| COC(=O)CCCNC(=O)COc1ccccc1C(F)(F)F | -6.88 |
| Cc1nc(C2CCCN2C(=O)Cc2ccc3c(c2)OCO3)nc(O)c1C (stereo unspecified) | -5.28 |
| CCCN1CCC(N2CCN(c3cc(C)nc(C)c3)CC2)CC1 | 5.6 |
| CCNc1ncc(C(=O)NCCNc2ccncc2C)cn1 | 3.69 |
| Cc1cc(NC(=O)CNCc2csc(-c3ncccn3)n2)ccc1Cl | -14.6 |
| CN(C)C(=O)COC[C@]12COC[C@H]1CN(Cc1ccoc1)C2 | -6.16 |
| COC[C@H]1CCC[C@]12CN(CCc1ccccc1)CCO2 | -15.8 |
| NCc1cnn(-c2ccccc2C(=O)NCCCn2ccnc2)c1 | -6.34 |
| CS(=O)(=O)N1CC[C@H]2O[C@H](C(=O)NCCc3ccccn3)CC[C@H]21 | -9.62 |

| Structure (SMILES) | cytotoxicity at 70.5 h [%] |
| --- | --- |
| COC(=O)CCN(C)Cc1cc(Br)cs1 | -21.1 |
| CCn1cc(CN2CCCN(C(=O)c3ccoc3)CC2)cn1 | 9.04 |
| CCNCCOc1ccc(-c2cc(N)nc3[nH]ccc23)cc1 | -10.1 |
| CC(C)c1nc(CN2CCCCC2)cs1 | -4.92 |
| Cc1cnn(CCNc2cnc3ccccc3n2)c1 | -1.2 |
| CC(C)(C)CN[C@@H]1CO[C@H](CNC(=O)Nc2ccccc2)[C@H]1O | -1.92 |
| CCN(Cc1ccc2c(c1)OCO2)c1ncc(S(N)(=O)=O)s1 | 1.59 |
| COc1ccc(CN2CCCCCC2c2cccs2)c(OC)c1 (stereo unspecified) | -8.21 |
| Cc1c(C(=O)O)cnn1-c1ccc(-c2nc(C(C)(C)C)no2)cn1 | -8.45 |
| O=C(NC1(c2nccs2)CCCC1)c1cc(C2CC2)[nH]n1 | -2.38 |
| O=C1[C@H]2CN(Cc3ccccc3)C[C@H]2CN1CCN1CCCC1 | -8.49 |
| COC(C)C(=O)NS(=O)(=O)c1ccc(F)c(C(F)(F)F)c1 (stereo unspecified) | -12.6 |
| Cn1cc(CN2CC[C@@H]3[C@@H](CCC(=O)N3CCc3c[nH]cn3)C2)cn1 | -6.69 |
| O=C(c1ccc[nH]1)N1CCOC2(COCCN(c3cncnc3)C2)C1 (stereo unspecified) | -7.73 |
| COCCN1C(=O)CC[C@]12CC[C@@H](NCc1cccnc1OC)CC2 | -2.58 |
| Cc1nc(O)cc(C2CCCN(C(=O)CN(C)c3ccccc3)C2)n1 (stereo unspecified) | 1.65 |
| Cc1cccc(CN2CCc3[nH]nc(C(=O)N(C)C)c3C2)n1 | 33.4 |
| Cc1cccc(C2CCCN2C(=O)CN(C)S(C)(=O)=O)c1C (stereo unspecified) | -5.26 |
| O=c1oc(-c2ccc(F)cc2)nn1CN1CCN(C2CCCC2)CC1 | -9.32 |
